Values after ≈ are worked out from the molar mass of the structure shown. Square brackets hold non-standard residues; d marks the D form. Peptide text beside a SMILES is read from it. ξ: configuration not given here. ξαMeGly(pent-4-enyl) = C=CCCCC(C)(N)C(=O)O
What was measured:
E. coli ATCC 25922 = type: cell-based; conditions: ATCC 25922, 18 h
Procedure: (§1) The minimum inhibitory concentration (MIC) of the Feleucin-K3 analogs was tested by the broth microdilution method. Sensitive bacteria and drug-resistant bacteria were diluted to 1 × 10^6 CFU/mL, according to the McFarland standards. Bacterial suspension and peptide solutions (8–128 μg/mL) were incubated at 37 °C for 18 h. The minimum concentration without obvious bacterial growth was the MIC of the peptides. The stability of the analogs in a physiological salt environment was also investigated. In brief, salt powder (450-mM NaCl) was dissolved in deionized water, and the following investigational steps were the same as those described before. The above steps were repeated several times, until the same value was obtained three times.

MRSA 113 = type: cell-based, Staphylococcus aureus; conditions: 113, 18 h
Procedure: as §1

MRSA 23 = type: cell-based, Staphylococcus aureus; conditions: 23, 18 h
Procedure: as §1

MRSA 48 = type: cell-based, Staphylococcus aureus; conditions: 48, 18 h
Procedure: as §1

MRSA 51 = type: cell-based, Staphylococcus aureus; conditions: 51, 18 h
Procedure: as §1

MRSA 52 = type: cell-based, Staphylococcus aureus; conditions: 52, 18 h
Procedure: as §1

MRSA 54 = type: cell-based, Staphylococcus aureus; conditions: 54, 18 h
Procedure: as §1

MRSA 71 = type: cell-based, Staphylococcus aureus; conditions: 71, 18 h
Procedure: as §1

MRSA 74 = type: cell-based, Staphylococcus aureus; conditions: 74, 18 h
Procedure: as §1

MRSA 75 = type: cell-based, Staphylococcus aureus; conditions: 75, 18 h
Procedure: as §1

MRSA 936 = type: cell-based, Staphylococcus aureus; conditions: 936, 18 h
Procedure: as §1

MRSA ATCC 33591 = type: cell-based, Staphylococcus aureus; conditions: ATCC 33591, 18 h
Procedure: as §1

S. aureus 725 = type: cell-based, Staphylococcus aureus; conditions: 725, 18 h
Procedure: as §1

S. aureus 794 = type: cell-based, Staphylococcus aureus; conditions: 794, 18 h
Procedure: as §1

S. aureus ATCC 25923 = type: cell-based, Staphylococcus aureus; conditions: ATCC 25923, 18 h
Procedure: as §1

P. aeruginosa ATCC 27853 = type: cell-based, Pseudomonas aeruginosa; conditions: ATCC 27853, 18 h
Procedure: as §1

A. baumannii 51243 = type: cell-based, Acinetobacter baumannii; conditions: 51243, 18 h
Procedure: as §1

A. baumannii 5444 = type: cell-based, Acinetobacter baumannii; conditions: 5444, 18 h
Procedure: as §1

A. baumannii 822144 = type: cell-based, Acinetobacter baumannii; conditions: 822144, 18 h
Procedure: as §1

A. baumannii 8309 = type: cell-based, Acinetobacter baumannii; conditions: 8309, 18 h
Procedure: as §1

A. baumannii 91105 = type: cell-based, Acinetobacter baumannii; conditions: 91105, 18 h
Procedure: as §1

A. baumannii 91152 = type: cell-based, Acinetobacter baumannii; conditions: 91152, 18 h
Procedure: as §1

A. baumannii 91199 = type: cell-based, Acinetobacter baumannii; conditions: 91199, 18 h
Procedure: as §1

A. baumannii 91810 = type: cell-based, Acinetobacter baumannii; conditions: 91810, 18 h
Procedure: as §1

A. baumannii 91869 = type: cell-based, Acinetobacter baumannii; conditions: 91869, 18 h
Procedure: as §1

A. baumannii 91944 = type: cell-based, Acinetobacter baumannii; conditions: 91944, 18 h
Procedure: as §1

A. baumannii 9234 = type: cell-based, Acinetobacter baumannii; conditions: 9234, 18 h
Procedure: as §1

A. baumannii 92359 = type: cell-based, Acinetobacter baumannii; conditions: 92359, 18 h
Procedure: as §1

A. baumannii 9236 = type: cell-based, Acinetobacter baumannii; conditions: 9236, 18 h
Procedure: as §1

A. baumannii 9331 = type: cell-based, Acinetobacter baumannii; conditions: 9331, 18 h
Procedure: as §1

A. baumannii 9336 = type: cell-based, Acinetobacter baumannii; conditions: 9336, 18 h
Procedure: as §1

A. baumannii 97830 = type: cell-based, Acinetobacter baumannii; conditions: 97830, 18 h
Procedure: as §1

A. baumannii 98110 = type: cell-based, Acinetobacter baumannii; conditions: 98110, 18 h
Procedure: as §1

A. baumannii 9828 = type: cell-based, Acinetobacter baumannii; conditions: 9828, 18 h
Procedure: as §1

A. baumannii 9840 = type: cell-based, Acinetobacter baumannii; conditions: 9840, 18 h
Procedure: as §1

A. baumannii 9896 = type: cell-based, Acinetobacter baumannii; conditions: 9896, 18 h
Procedure: as §1

A. baumannii ATCC 19606 = type: cell-based, Acinetobacter baumannii; conditions: ATCC 19606, 18 h
Procedure: as §1

P. aeruginosa = assay: Resistance development assay, sequential passaging; type: cell-based, Pseudomonas aeruginosa; conditions: serial passage at sub-MIC, 20 passages
Procedure: (§2) Serial passage and MIC determination were used to explore whether the bacteria developed drug resistance. On the first day, the MICs of the peptides were determined as described above. The next day, the bacterial suspension of sub-MIC concentration was cultivated to the mid-log phase. The MICs of the peptides were detected again, and this process was repeated for 20 days. The MICs of the antibiotics, including amoxicillin (AML), ceftazidime (CAZ) and imipenem, were also determined as controls.

E. coli = assay: Resistance development assay, sequential passaging; type: cell-based; conditions: serial passage at sub-MIC, 20 passages
Procedure: as §2

| Compound | MIC, E. coli ATCC 25922 (E. coli ATCC 25922) | MIC, MRSA 113 (MRSA 113) | MIC, MRSA 23 (MRSA 23) | MIC, MRSA 48 (MRSA 48) | MIC, MRSA 51 (MRSA 51) | MIC, MRSA 52 (MRSA 52) | MIC, MRSA 54 (MRSA 54) | MIC, MRSA 71 (MRSA 71) | MIC, MRSA 74 (MRSA 74) | MIC, MRSA 75 (MRSA 75) | MIC, MRSA 936 (MRSA 936) | MIC, MRSA ATCC 33591 (MRSA ATCC 33591) | MIC, S. aureus 725 (S. aureus 725) | MIC, S. aureus 794 (S. aureus 794) | MIC, S. aureus ATCC 25923 (S. aureus ATCC 25923) | MIC, P. aeruginosa ATCC 27853 (P. aeruginosa ATCC 27853) | MIC, A. baumannii 51243 (A. baumannii 51243) | MIC, A. baumannii 5444 (A. baumannii 5444) | MIC, A. baumannii 822144 (A. baumannii 822144) | MIC, A. baumannii 8309 (A. baumannii 8309) | further results |
| --- | --- | --- | --- | --- | --- | --- | --- | --- | --- | --- | --- | --- | --- | --- | --- | --- | --- | --- | --- | --- | --- |
| C=CCCCC(C)(NC(=O)[C@H](CCCCN)NC(=O)[C@H](CCCCN)NC(=O)[C@H](CC(C)C)NC(=O)[C@H](CC(C)C)NC(=O)[C@H](CCCCN)NC(=O)[C@H](CC(C)C)NC(=O)[C@@H](N)Cc1ccccc1)C(=O)N[C@@H](CC(C)C)C(N)=O (stereo partly drawn) [Feleucin-K69] (H-FLKLLKK[ξαMeGly(pent-4-enyl)]L-NH2) | 8 µg/mL (≈ 7.01 µM) | 4 µg/mL (≈ 3.51 µM) | 4 µg/mL (≈ 3.51 µM) | 4 µg/mL (≈ 3.51 µM) | 4 µg/mL (≈ 3.51 µM) | 4 µg/mL (≈ 3.51 µM) | 4 µg/mL (≈ 3.51 µM) | 4 µg/mL (≈ 3.51 µM) | 8 µg/mL (≈ 7.01 µM) | 4 µg/mL (≈ 3.51 µM) | 4 µg/mL (≈ 3.51 µM) | 4 µg/mL (≈ 3.51 µM) | 4 µg/mL (≈ 3.51 µM) | 8 µg/mL (≈ 7.01 µM) | 4 µg/mL (≈ 3.51 µM) | 8 µg/mL (≈ 7.01 µM) | 8 µg/mL (≈ 7.01 µM) | 8 µg/mL (≈ 7.01 µM) | 8 µg/mL (≈ 7.01 µM) | 8 µg/mL (≈ 7.01 µM) | MIC, A. baumannii 91105 (A. baumannii 91105): 8 µg/mL (≈ 7.01 µM); MIC, A. baumannii 91152 (A. baumannii 91152): 8 µg/mL (≈ 7.01 µM); MIC, A. baumannii 91199 (A. baumannii 91199): 8 µg/mL (≈ 7.01 µM); MIC, A. baumannii 91810 (A. baumannii 91810): 8 µg/mL (≈ 7.01 µM); MIC, A. baumannii 91869 (A. baumannii 91869): 8 µg/mL (≈ 7.01 µM); MIC, A. baumannii 91944 (A. baumannii 91944): 8 µg/mL (≈ 7.01 µM); MIC, A. baumannii 9234 (A. baumannii 9234): 8 µg/mL (≈ 7.01 µM); MIC, A. baumannii 92359 (A. baumannii 92359): 4 µg/mL (≈ 3.51 µM); MIC, A. baumannii 9236 (A. baumannii 9236): 8 µg/mL (≈ 7.01 µM); MIC, A. baumannii 9331 (A. baumannii 9331): 8 µg/mL (≈ 7.01 µM); MIC, A. baumannii 9336 (A. baumannii 9336): 8 µg/mL (≈ 7.01 µM); MIC, A. baumannii 97830 (A. baumannii 97830): 8 µg/mL (≈ 7.01 µM); MIC, A. baumannii 98110 (A. baumannii 98110): 8 µg/mL (≈ 7.01 µM); MIC, A. baumannii 9828 (A. baumannii 9828): 8 µg/mL (≈ 7.01 µM); MIC, A. baumannii 9840 (A. baumannii 9840): 8 µg/mL (≈ 7.01 µM); MIC, A. baumannii 9896 (A. baumannii 9896): 8 µg/mL (≈ 7.01 µM); MIC, A. baumannii ATCC 19606 (A. baumannii ATCC 19606): 8 µg/mL (≈ 7.01 µM) |
| C=CCCCC(C)(NC(=O)[C@H](CC(C)C)NC(=O)[C@H](CC(C)C)NC(=O)[C@H](CCCCN)NC(=O)[C@H](CC(C)C)NC(=O)[C@@H](N)Cc1ccccc1)C(=O)N[C@@H](CCCCN)C(=O)N[C@@H](CC(C)C)C(=O)N[C@@H](CC(C)C)C(N)=O (stereo partly shown) [Feleucin-K71] (H-FLKLL[ξαMeGly(pent-4-enyl)]KLL-NH2) | 16 µg/mL (≈ 14.2 µM) | 4 µg/mL (≈ 3.55 µM) | 4 µg/mL (≈ 3.55 µM) | 4 µg/mL (≈ 3.55 µM) | 4 µg/mL (≈ 3.55 µM) | 4 µg/mL (≈ 3.55 µM) | 4 µg/mL (≈ 3.55 µM) | 4 µg/mL (≈ 3.55 µM) | 4 µg/mL (≈ 3.55 µM) | 4 µg/mL (≈ 3.55 µM) | 4 µg/mL (≈ 3.55 µM) | 4 µg/mL (≈ 3.55 µM) | 4 µg/mL (≈ 3.55 µM) | 16 µg/mL (≈ 14.2 µM) | 4 µg/mL (≈ 3.55 µM) | 8 µg/mL (≈ 7.11 µM) | 32 µg/mL (≈ 28.4 µM) | 8 µg/mL (≈ 7.11 µM) | 16 µg/mL (≈ 14.2 µM) | 8 µg/mL (≈ 7.11 µM) | MIC, A. baumannii 91105 (A. baumannii 91105): 8 µg/mL (≈ 7.11 µM); MIC, A. baumannii 91152 (A. baumannii 91152): 16 µg/mL (≈ 14.2 µM); MIC, A. baumannii 91199 (A. baumannii 91199): 16 µg/mL (≈ 14.2 µM); MIC, A. baumannii 91810 (A. baumannii 91810): 16 µg/mL (≈ 14.2 µM); MIC, A. baumannii 91869 (A. baumannii 91869): 8 µg/mL (≈ 7.11 µM); MIC, A. baumannii 91944 (A. baumannii 91944): 16 µg/mL (≈ 14.2 µM); MIC, A. baumannii 9234 (A. baumannii 9234): 8 µg/mL (≈ 7.11 µM); MIC, A. baumannii 92359 (A. baumannii 92359): 16 µg/mL (≈ 14.2 µM); MIC, A. baumannii 9236 (A. baumannii 9236): 16 µg/mL (≈ 14.2 µM); MIC, A. baumannii 9331 (A. baumannii 9331): 64 µg/mL (≈ 56.9 µM); MIC, A. baumannii 9336 (A. baumannii 9336): 8 µg/mL (≈ 7.11 µM); MIC, A. baumannii 97830 (A. baumannii 97830): 32 µg/mL (≈ 28.4 µM); MIC, A. baumannii 98110 (A. baumannii 98110): 16 µg/mL (≈ 14.2 µM); MIC, A. baumannii 9828 (A. baumannii 9828): 16 µg/mL (≈ 14.2 µM); MIC, A. baumannii 9840 (A. baumannii 9840): 8 µg/mL (≈ 7.11 µM); MIC, A. baumannii 9896 (A. baumannii 9896): 8 µg/mL (≈ 7.11 µM); MIC, A. baumannii ATCC 19606 (A. baumannii ATCC 19606): 4 µg/mL (≈ 3.55 µM) |
| CC(C)(O/N=C(\C(=O)N[C@@H]1C(=O)N2C(C(=O)[O-])=C(C[n+]3ccccc3)CS[C@H]12)c1csc(N)n1)C(=O)O [CAZ, ceftazidime] |  |  |  |  |  |  |  |  |  |  |  |  |  |  |  |  |  |  |  |  | fold increase of MIC, P. aeruginosa (P. aeruginosa): 32 fold; fold increase of MIC, E. coli (E. coli): 16 fold |
